Results on one compound are retold here after BindingDB's records for PubMed 35814933 (Nankai University, 2022).

The term IC50 denotes the concentration at which inhibition is half-maximal. High values mean weaker potency, low ones greater potency.

The target in test [1] is Cyclin-dependent kinase 5 (Homo sapiens, UniProt Q00535). The test can be described thus: Inhibition of CDK5 (unknown origin).
The target of test [2] is Cyclin-dependent kinase 7 (Homo sapiens, UniProt P50613). Put plainly: Inhibition of CDK7 (unknown origin).
Cyclin-dependent kinase 7, sequence (P50613 whole entry): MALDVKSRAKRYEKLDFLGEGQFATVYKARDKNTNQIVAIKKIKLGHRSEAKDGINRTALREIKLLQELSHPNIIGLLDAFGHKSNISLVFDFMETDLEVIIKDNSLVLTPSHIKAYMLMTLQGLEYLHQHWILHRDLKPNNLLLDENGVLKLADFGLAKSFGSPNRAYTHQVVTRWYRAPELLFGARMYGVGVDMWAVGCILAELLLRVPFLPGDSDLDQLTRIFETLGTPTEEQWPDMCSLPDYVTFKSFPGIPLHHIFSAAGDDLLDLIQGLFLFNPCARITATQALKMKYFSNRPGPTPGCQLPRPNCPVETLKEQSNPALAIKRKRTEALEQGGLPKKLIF

Cyclin-dependent kinase 5, sequence (Q00535 whole entry): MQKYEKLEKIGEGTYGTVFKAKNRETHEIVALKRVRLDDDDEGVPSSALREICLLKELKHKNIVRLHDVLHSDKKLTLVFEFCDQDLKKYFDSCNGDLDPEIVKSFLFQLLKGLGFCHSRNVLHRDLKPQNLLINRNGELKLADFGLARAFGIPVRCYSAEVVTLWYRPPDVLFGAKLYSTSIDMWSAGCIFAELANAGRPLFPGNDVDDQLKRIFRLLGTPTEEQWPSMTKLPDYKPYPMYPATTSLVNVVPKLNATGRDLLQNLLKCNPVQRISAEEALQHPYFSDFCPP

`CC[C@H](Nc1nc(NCc2cnc(C)cc2C)c2ncn(C(C)C)c2n1)[C@@H](C)O` [US8592581, 1]: the IC50 in test [1] amounted to 21 nM; in test [2], 193 nM.
